Test results reported in patent publication US20230014907A1, “INHIBITORS OF APOL1 AND METHODS OF USING SAME” (Vertex Pharmaceuticals Incorporated, priority 2020, published 2023).

Molecular target: T1, G1 APOL1 (Homo sapiens, UniProt O14791, I384M/S342G)
T1 construct: expressed in transfected cells
T1 sequence (O14791 28-398 S342G/I384M): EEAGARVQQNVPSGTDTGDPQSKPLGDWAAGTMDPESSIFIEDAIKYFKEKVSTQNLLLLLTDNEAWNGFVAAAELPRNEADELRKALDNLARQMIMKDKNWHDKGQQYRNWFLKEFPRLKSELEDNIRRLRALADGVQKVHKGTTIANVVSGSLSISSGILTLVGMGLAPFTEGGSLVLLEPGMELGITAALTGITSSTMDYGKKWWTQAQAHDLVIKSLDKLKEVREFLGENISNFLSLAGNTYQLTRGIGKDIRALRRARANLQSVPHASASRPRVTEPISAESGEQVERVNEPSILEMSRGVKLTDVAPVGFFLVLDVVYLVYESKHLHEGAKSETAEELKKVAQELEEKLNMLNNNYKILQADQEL
Experiment: Acute APOL1 Thallium Assay with Inducible Stable Clones of HEK 293 Cells
Assay type: cell-based
Details: HEK 293 inducible stable clones, G1 APOL1; read-out: Thallium Assay (IC50)
Description: Acute APOL1 Thallium Assay with Inducible Stable Clones of HEK 293 Cells
Apolipoprotein L1 (APOL1) proteins form potassium-permeable cation pores in the plasma membrane. APOL1 risk variants (G1 and G2) induce greater potassium flux than G0 in HEK293 cells. This assay exploits the permeability of thallium (Tl+) through ligand-gated potassium channels. The dye produces a bright fluorescent signal upon binding to Tl+ conducted through potassium channels. The intensity of the Tl+ signal is proportional to the number of potassium channels in the open state. Therefore, it provides a functional indication of the potassium channel activities. During the initial dye-loading step, the Tl+ indicator dye as an acetoxymethyl (AM) ester enters the cells through passive diffusion. Cytoplasm esterases cleave the AM ester and relieve its active thallium-sensitive form. The cells are then stimulated with Tl+. The increase of fluorescence in the assay represents the influx of Tl+ into the cell specifically through the potassium channel (i.e. through APOL1 pores), providing a functional measurement of potassium channel/pore activity. The Thallium assay is conducted with cells expressing G1 APOL1.
APOL1 Cell Line (HEK T-Rex Stable Inducible Cell Line) • HEK T-Rex System • Tetracycline (Tet) inducible mammalian expression system. • Stably express the Tet repressor to regulate transcription. • Expression under the full-length CMV promoter. • APOL1 stable inducible cell line Clone used: G1 DC3.25
Tissue Culture Media • Cell Culture Medium • DMEM+10% FBS+P/S+5 μg/mL blasticidin+1 μg/mL puromycin. • 500 mL DMEM+55 mL FBS+5 mL P/S+280 μL blasticidin S HCl (10 mg/mL)+56 μL puromycin (10 mg/mL). • Cell Assay Medium • DMEM with 2% FBS+penicillin/streptomycin.
Instruments and Equipment • Nuaire cell culture hood, Cat. No. 540-600 • 37° C./5% CO2 incubator link to robotic arm, Liconic: STX110 • Molecular Devices FLIPR^Tetra High throughput cellular screening system, Cat. No. FT0324, Molecular Devices • ThermoFisher MultiDrop 384, Cat. No. 5840300 • Biotek Microfill, Cat. No. ASF1000A-4145 • BioRad TC10 cell counter, Cat. No. 145-0010
Cells Scaled Up from Frozen Vials • APOL1 G1 3.25 (HEK293 T-Rex) frozen vials: 5 million cells per vial • Step 1, Day 1: Defrost frozen vial into T-225. • Step 2, Day 5: (when 85% confluent): Split one T-225 at 3×10^6 cells per flask. • Step 3, Day 8: Splits cells to set up for the assay plates as described below.
T-Rex APOL1 HEK cells are split twice per week to keep the confluence state below 85% of the culture flask surface area. Cells can be kept until passage 25. • Cell Culture Medium • DMEM high glucose+10% FBS, +P/S, +5 μg/mL blasticidin, +1 μg/mL puromycin. • 500 mL DMEM, +55 mL FBS, +5 mL P/S, +280 μL blasticidin 10 mg/mL, +56 μL Puromycin 10 mg/mL. • Assay Media • Opti-MEM reduced serum medium from Invitrogen.
Preparation of Cell Assay Plates • Culture medium is removed from the x cm^2 T-flask by aspiration. • The cell monolayer is rinsed with PBS 1× at room temperature. PBS is removed by aspiration. • Cells are trypsinized using Trypsin. • The flasks are incubated at room temperature for 2-3 minutes. • Complete DMEM medium is then added. Cell suspension is then transferred to a 50 mL Falcon polypropylene tube. • Cells are then counted using a BioRad TC10 cell counter and the required amount of cells are centrifuged at 1200 RPM for 5 minutes. Required amount is 1.3×10^6 cells/mL APOL1 T-Rex HEK cells. • The pellet is suspended in the assay medium. • Using the MultiDrop, add 20 μL to each well (corresponds to 26000 cells total per well) of a 384-well black, transparent, flat bottom Poly-D coated plate. • Tetracycline as prepared in the following section is added to the cells before plating to induce APOL1 expression. • Plates are left at room temperature for 20 to 30 minutes before incubation at 37° C. and 5% CO2. […]

SMILES	IC50 [µM]
Cc1cc(F)c2[nH]c(-c3ccc(F)cc3)c(CCC(=O)NCCO)c2c1 [Compound 218]	> 1
Cc1cc(F)c2[nH]c(-c3ccc(F)cc3)c(CCC(=O)NC(CO)CO)c2c1 [Compound 219]	> 1
Cc1cc(F)c2[nH]c(-c3ccc(F)cc3)c(CCC(=O)N[C@H](CO)C(N)=O)c2c1 [Compound 220]	> 1
Cc1cc(F)c2[nH]c(-c3ccc(F)cc3)c(CCC(=O)NC(CO)CF)c2c1 (stereo not drawn) [Compound 221]	> 1
Cc1cc(F)c2[nH]c(-c3ccc(F)cc3)c(CCC(=O)N[C@@H](C)CO)c2c1 [Compound 222]	> 1
Cc1cc(F)c2[nH]c(-c3ccc(F)cc3)c(CCC(=O)NCC(N)=O)c2c1 [Compound 223]	> 1
Cc1cc(F)c2[nH]c(-c3ccc(F)cc3)c(CCC(=O)N[C@H](CO)C(F)(F)F)c2c1 [Compound 224]	> 1
Cc1cc(F)c2[nH]c(-c3ccc(F)cc3)c(CCC(=O)NC(C)(CO)CO)c2c1 [Compound 225]	> 1
Cc1cc(F)c2[nH]c(-c3ccc(F)cc3)c(CCC(=O)NC[C@H](O)CO)c2c1 [Compound 226]	> 1
O=C(CCc1c(-c2ccc(F)cc2)[nH]c2c(Cl)cccc12)N[C@@H](CO)C(F)F [Compound 231, 3-[7-chloro-2-(4-fluorophenyl)-1H-indol-3-yl]-N-[(1S)-2,2-difluoro-1-(hydroxymethyl)ethyl]propanamide]	< 0.25
O=C(CCc1c(-c2ccccc2)[nH]c2ccc(F)cc12)N[C@@H](CO)C(F)F [Compound 235, N-[(1S)-2,2-difluoro-1-(hydroxymethyl)ethyl]-3-(5-fluoro-2-phenyl-1H-indol-3-yl)propanamide]	< 0.25
CNC(=O)CCCc1c(-c2ccc(F)cc2)[nH]c2c(F)cc(F)cc12 [Compound 239, 4-(5,7-difluoro-2-(4-fluorophenyl)-1H-indol-3-yl)-N-methylbutanamide]	0.25 to 1
C[C@@H](CO)NC(=O)CCCc1c(-c2ccc(F)cc2)[nH]c2c(F)cc(F)cc12 [Compound 240]	0.25 to 1
C[C@H](CO)NC(=O)CCCc1c(-c2ccc(F)cc2)[nH]c2c(F)cc(F)cc12 [Compound 241]	0.25 to 1
O=C1C[C@@H](NC(=O)CCCc2c(-c3ccc(F)cc3)[nH]c3c(F)cc(F)cc23)C(=O)N1 [Compound 242]	> 1
NC(=O)CCCc1c(-c2ccc(F)cc2)[nH]c2c(F)cc(F)cc12 [Compound 243]	> 1
Cn1cnc(CNC(=O)CCCc2c(-c3ccc(F)cc3)[nH]c3c(F)cc(F)cc23)c1 [Compound 244]	> 1
O=C1C[C@H](NC(=O)CCCc2c(-c3ccc(F)cc3)[nH]c3c(F)cc(F)cc23)C(=O)N1 [Compound 245]	> 1
NC(=O)CNC(=O)CCCc1c(-c2ccc(F)cc2)[nH]c2c(F)cc(F)cc12 [Compound 246]	> 1
O=C(CCCc1c(-c2ccc(F)cc2)[nH]c2c(F)cc(F)cc12)N[C@@H]1CCNC1=O [Compound 247]	> 1
O=C(CCCc1c(-c2ccc(F)cc2)[nH]c2c(F)cc(F)cc12)N1C[C@@H](O)[C@H](O)C1 [Compound 248]	> 1
O=C(CCCc1c(-c2ccc(F)cc2)[nH]c2c(F)cc(F)cc12)N[C@H]1CCNC1=O [Compound 249]	> 1

Continued, values first:

IC50 [µM]	SMILES
> 1	CC(O)(CO)CNC(=O)CCCc1c(-c2ccc(F)cc2)[nH]c2c(F)cc(F)cc12 (stereo not drawn) [Compound 250]
> 1	Cn1cc(CNC(=O)CCCc2c(-c3ccc(F)cc3)[nH]c3c(F)cc(F)cc23)nn1 [Compound 251]
> 1	O=C(CCCc1c(-c2ccc(F)cc2)[nH]c2c(F)cc(F)cc12)NCC1CNC(=O)C1 (stereo not drawn) [Compound 252]
> 1	O=C1CC(NC(=O)CCCc2c(-c3ccc(F)cc3)[nH]c3c(F)cc(F)cc23)CN1 (stereo not drawn) [Compound 253]
> 1	Cn1cc(CNC(=O)CCCc2c(-c3ccc(F)cc3)[nH]c3c(F)cc(F)cc23)cn1 [Compound 254]
> 1	Cn1nccc1CNC(=O)CCCc1c(-c2ccc(F)cc2)[nH]c2c(F)cc(F)cc12 [Compound 255]
> 1	O=C(CCCc1c(-c2ccc(F)cc2)[nH]c2c(F)cc(F)cc12)N[C@H]1C[C@@H](CO)NC1=O [Compound 256]
> 1	C[C@@H]1NC(=O)N(CCc2c(-c3ccc(F)cc3)[nH]c3c(F)cc(F)cc23)C1=O [Compound 257, (5S)-3-[2-[5,7-difluoro-2-(4-fluorophenyl)-1H-indol-3-yl]ethyl]-5-methyl-imidazolidine-2,4-dione]
> 1	O=C1CNC(=O)N1CCc1c(-c2ccc(F)cc2)[nH]c2c(F)cc(F)cc12 [Compound 258, 3-[2-[5,7-difluoro-2-(4-fluorophenyl)-1H-indol-3-yl]ethyl]imidazolidine-2,4-dione]
0.25 to 1	O=C(NCCc1c(-c2ccc(F)cc2)[nH]c2c(F)cc(F)cc12)NC(CO)CF (stereo not drawn) [Compound 259, 1-[2-[5,7-difluoro-2-(4-fluorophenyl)-1H-indol-3-yl]ethyl]-3-[1-(fluoromethyl)-2-hydroxy-ethyl]urea]
> 1	O=C(CNC(=O)NCCc1c(-c2ccc(F)cc2)[nH]c2c(F)cc(F)cc12)NO [Compound 260]
0.25 to 1	O=C(NCCc1c(-c2ccc(F)cc2)[nH]c2c(F)cc(F)cc12)N[C@@H](CO)C(F)(F)F [Compound 261]
< 0.25	O=C(NCCc1c(-c2ccc(F)cc2)[nH]c2c(F)cc(F)cc12)N[C@H](CO)C(F)(F)F [Compound 262]
> 1	O=C(NCCc1c(-c2ccc(F)cc2)[nH]c2c(F)cc(F)cc12)NCCS(=O)(=O)O [Compound 263]
> 1	O=C(NCCc1c(-c2ccc(F)cc2)[nH]c2c(F)cc(F)cc12)NCc1cccc(O)c1 [Compound 264]
> 1	CC(C)(C)[C@H](CO)NC(=O)NCCc1c(-c2ccc(F)cc2)[nH]c2c(F)cc(F)cc12 [Compound 265]
> 1	O=C(NCCc1c(-c2ccc(F)cc2)[nH]c2c(F)cc(F)cc12)NCC1(O)CCCC1 [Compound 266]
> 1	O=C(NCCc1c(-c2ccc(F)cc2)[nH]c2c(F)cc(F)cc12)NCC(O)C(F)F (stereo not drawn) [Compound 267]
> 1	C[C@H](NC(=O)NCCc1c(-c2ccc(F)cc2)[nH]c2c(F)cc(F)cc12)C(C)(C)O [Compound 268]
> 1	CC(C)[C@@H](CO)NC(=O)NCCc1c(-c2ccc(F)cc2)[nH]c2c(F)cc(F)cc12 [Compound 269]
> 1	CC(C)(O)CCNC(=O)NCCc1c(-c2ccc(F)cc2)[nH]c2c(F)cc(F)cc12 [Compound 270]
> 1	O=C(NCCc1c(-c2ccc(F)cc2)[nH]c2c(F)cc(F)cc12)N[C@@H]1CC[C@H](O)C1 [Compound 272]
> 1	O=C(NCCc1c(-c2ccc(F)cc2)[nH]c2c(F)cc(F)cc12)N[C@@H]1CC[C@@H](O)C1 [Compound 273]
